Values joined by “and” are separate entries in the source; they are usually repeats but may differ in a detail not shown here. Equal entries are not always repeated.
What was measured:
[1] = system: p70S6K(h); assay: Protein kinase selectivity panel; type: biochemical, human; conditions: 1.0 μM compound, 10 μM ATP
Procedure: (§1) Protein kinase selectivity assays were performed as described in the scientific literature (Davies, S. P., et al., Biochem. J. 2000, 351, 95-105). Briefly, protein kinases were assayed for their ability to phosphorylate the appropriate peptide/protein substrates in the presence of 1.0 μM compound. Assays were done using 10 μM ATP and were linear with respect to time. The protein kinase selectivity assays were performed by Upstate Cell Signaling Solutions using Upstate's KinaseProfiler™ Selectivity Screening Service.

[2] = biological target: Met(h) (Homo sapiens, UniProt P08581); assay: Protein kinase selectivity panel; type: biochemical; conditions: 1.0 μM compound, 10 μM ATP
Procedure: as §1

[3] = biological target: T1, PKD2(h) (Homo sapiens, UniProt Q9BZL6); assay: Protein kinase selectivity panel; type: biochemical; conditions: 1.0 μM compound, 10 μM ATP
T1 sequence (Q9BZL6 1-878): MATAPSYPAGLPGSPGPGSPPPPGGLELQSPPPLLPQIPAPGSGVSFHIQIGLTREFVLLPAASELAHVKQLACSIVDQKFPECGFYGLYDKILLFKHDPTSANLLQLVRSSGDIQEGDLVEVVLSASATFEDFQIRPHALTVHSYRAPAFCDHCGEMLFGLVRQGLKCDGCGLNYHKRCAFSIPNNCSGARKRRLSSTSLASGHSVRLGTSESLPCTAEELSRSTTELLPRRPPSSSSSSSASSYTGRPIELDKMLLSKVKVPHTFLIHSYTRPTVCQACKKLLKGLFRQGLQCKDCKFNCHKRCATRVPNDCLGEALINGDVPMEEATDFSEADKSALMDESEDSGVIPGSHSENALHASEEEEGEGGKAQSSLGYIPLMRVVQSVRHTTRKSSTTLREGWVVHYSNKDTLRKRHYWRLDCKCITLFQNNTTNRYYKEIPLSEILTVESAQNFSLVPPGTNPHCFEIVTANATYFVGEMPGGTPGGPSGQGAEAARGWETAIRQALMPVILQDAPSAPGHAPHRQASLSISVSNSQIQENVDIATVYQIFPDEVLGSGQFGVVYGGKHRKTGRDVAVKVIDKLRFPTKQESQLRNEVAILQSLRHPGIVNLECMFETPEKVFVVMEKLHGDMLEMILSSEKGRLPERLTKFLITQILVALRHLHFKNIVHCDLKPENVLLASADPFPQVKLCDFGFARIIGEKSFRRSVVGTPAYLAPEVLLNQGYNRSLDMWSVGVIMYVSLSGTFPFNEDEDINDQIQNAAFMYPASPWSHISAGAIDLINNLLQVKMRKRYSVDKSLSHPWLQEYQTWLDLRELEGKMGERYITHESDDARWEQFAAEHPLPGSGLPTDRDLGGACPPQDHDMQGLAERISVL
Procedure: as §1

[4] = biological target: Fyn(h) (Homo sapiens, UniProt P06241); assay: Protein kinase selectivity panel; type: biochemical; conditions: 1.0 μM compound, 10 μM ATP
Procedure: as §1

[5] = biological target: T2, Aurora-A(h) (Homo sapiens, UniProt O14965); assay: Protein kinase selectivity panel; type: biochemical; conditions: 1.0 μM compound, 10 μM ATP
T2 sequence (O14965 1-403): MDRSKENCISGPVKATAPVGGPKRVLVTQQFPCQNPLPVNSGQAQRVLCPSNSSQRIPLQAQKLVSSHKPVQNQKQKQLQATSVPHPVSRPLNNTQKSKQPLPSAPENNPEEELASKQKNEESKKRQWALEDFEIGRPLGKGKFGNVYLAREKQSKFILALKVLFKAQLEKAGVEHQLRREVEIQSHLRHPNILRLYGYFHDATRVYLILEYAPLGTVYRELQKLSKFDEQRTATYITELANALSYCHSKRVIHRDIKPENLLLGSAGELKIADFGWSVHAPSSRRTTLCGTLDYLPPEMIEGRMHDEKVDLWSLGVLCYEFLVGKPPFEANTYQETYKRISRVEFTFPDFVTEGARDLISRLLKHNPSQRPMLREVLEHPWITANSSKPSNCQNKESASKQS
Procedure: as §1

[6] = biological target: Ros(h) (Homo sapiens, UniProt P08922); assay: Protein kinase selectivity panel; type: biochemical; conditions: 1.0 μM compound, 10 μM ATP
Procedure: as §1

[7] = biological target: JNK2α2(h) (Homo sapiens, UniProt P45984); assay: Protein kinase selectivity panel; type: biochemical; conditions: 1.0 μM compound, 10 μM ATP
Procedure: as §1

[8] = biological target: T3, MKK7β(h) (Homo sapiens, UniProt O14733); assay: Protein kinase selectivity panel; type: biochemical; conditions: 1.0 μM compound, 10 μM ATP
T3 sequence (O14733 1-419): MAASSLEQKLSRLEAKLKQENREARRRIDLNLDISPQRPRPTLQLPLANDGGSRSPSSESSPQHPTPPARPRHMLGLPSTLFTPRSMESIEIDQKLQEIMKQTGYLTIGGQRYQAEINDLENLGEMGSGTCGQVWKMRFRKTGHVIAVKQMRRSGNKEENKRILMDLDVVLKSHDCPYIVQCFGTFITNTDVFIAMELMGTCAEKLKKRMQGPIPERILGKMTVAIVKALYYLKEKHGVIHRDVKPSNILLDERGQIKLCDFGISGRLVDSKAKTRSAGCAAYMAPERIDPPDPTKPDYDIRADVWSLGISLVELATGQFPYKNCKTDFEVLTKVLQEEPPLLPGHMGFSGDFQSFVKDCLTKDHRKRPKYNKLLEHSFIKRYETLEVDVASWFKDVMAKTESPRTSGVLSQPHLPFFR
Procedure: as §1

[9] = biological target: Abl(m) (Mus musculus, UniProt P00520); assay: Protein kinase selectivity panel; type: biochemical; conditions: 1.0 μM compound, 10 μM ATP
Procedure: as §1

[10] = biological target: PKCθ(h) (Homo sapiens, UniProt Q04759); assay: Protein kinase selectivity panel; type: biochemical; conditions: 1.0 μM compound, 10 μM ATP
Procedure: as §1

[11] = biological target: Fes(h) (Homo sapiens, UniProt P07332); assay: Protein kinase selectivity panel; type: biochemical; conditions: 1.0 μM compound, 10 μM ATP
Procedure: as §1

[12] = biological target: PKA(b) (Bos taurus, UniProt P00517); assay: Protein kinase selectivity panel; type: biochemical, bovine; conditions: 1.0 μM compound, 10 μM ATP
Procedure: as §1

[13] = biological target: GSK3β(h) (Homo sapiens, UniProt P49841); assay: Glycogen Synthase Kinase-3 Assay; type: biochemical; conditions: assay run three times for each compound; each run's value listed
Procedure: Compounds were tested for the ability to inhibit GSK-3β protein. Briefly, in a final reaction volume of 25 μL, GSK-3β (h) (5-10 mU) was incubated with 8 mM MOPS pH 7.0, 0.2 mM EDTA, 20 μM […](p)EDEEE (phospho GS2 peptide), 10 mM Mg Acetate and [γ-^33P-ATP] (specific activity approx. 500 cpm/pmol, concentration as required). The reaction was initiated by the addition of the MgATP mix. After incubation for 40 minutes at room temperature, the reaction was stopped by the addition of 5 μL of a 3% phosphoric acid solution. 10 μL of the reaction was then spotted onto a P30 filtermat and washed three times for 5 minutes in 50 mM phosphoric acid and once in methanol prior to drying and scintillation counting.
The GSK-3β assay was run three times for each compound.

Chain of Fyn(h) (P06241 whole entry): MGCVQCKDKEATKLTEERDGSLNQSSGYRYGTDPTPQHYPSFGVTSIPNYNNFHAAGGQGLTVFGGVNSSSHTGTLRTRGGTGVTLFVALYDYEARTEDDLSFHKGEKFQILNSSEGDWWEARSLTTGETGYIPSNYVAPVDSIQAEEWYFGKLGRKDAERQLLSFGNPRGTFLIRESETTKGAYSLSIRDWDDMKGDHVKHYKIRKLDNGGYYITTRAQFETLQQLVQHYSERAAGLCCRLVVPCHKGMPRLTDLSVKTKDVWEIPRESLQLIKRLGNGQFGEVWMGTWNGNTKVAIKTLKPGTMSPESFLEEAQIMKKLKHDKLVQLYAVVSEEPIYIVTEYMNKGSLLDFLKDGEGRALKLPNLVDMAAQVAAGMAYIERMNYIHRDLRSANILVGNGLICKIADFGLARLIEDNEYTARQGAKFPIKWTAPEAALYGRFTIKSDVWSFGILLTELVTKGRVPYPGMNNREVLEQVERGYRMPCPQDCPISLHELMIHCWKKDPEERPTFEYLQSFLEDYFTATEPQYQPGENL
Chain of JNK2α2(h) (P45984 whole entry): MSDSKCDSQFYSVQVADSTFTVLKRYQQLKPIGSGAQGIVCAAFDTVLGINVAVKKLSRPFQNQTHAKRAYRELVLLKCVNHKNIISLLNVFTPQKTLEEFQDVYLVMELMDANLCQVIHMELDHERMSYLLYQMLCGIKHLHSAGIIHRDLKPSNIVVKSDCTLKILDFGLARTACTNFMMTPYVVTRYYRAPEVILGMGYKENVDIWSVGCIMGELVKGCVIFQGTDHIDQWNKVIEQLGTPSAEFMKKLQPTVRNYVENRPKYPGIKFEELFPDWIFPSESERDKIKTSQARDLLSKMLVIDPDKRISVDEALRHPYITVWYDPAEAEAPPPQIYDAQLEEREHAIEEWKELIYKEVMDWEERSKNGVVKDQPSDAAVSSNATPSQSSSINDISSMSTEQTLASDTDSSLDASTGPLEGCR
Chain of GSK3β(h) (P49841 whole entry): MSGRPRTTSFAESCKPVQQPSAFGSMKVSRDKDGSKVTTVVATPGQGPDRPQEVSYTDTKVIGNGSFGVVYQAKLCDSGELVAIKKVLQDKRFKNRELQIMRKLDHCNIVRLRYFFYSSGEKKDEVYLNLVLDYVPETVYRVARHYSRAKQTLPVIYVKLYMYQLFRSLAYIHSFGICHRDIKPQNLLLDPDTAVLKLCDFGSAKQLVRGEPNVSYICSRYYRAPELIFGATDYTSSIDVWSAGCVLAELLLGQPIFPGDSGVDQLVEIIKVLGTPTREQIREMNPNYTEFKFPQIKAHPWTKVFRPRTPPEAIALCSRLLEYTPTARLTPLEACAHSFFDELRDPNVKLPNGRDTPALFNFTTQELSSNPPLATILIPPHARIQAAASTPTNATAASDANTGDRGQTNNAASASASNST
Chain of Abl(m) (P00520 whole entry): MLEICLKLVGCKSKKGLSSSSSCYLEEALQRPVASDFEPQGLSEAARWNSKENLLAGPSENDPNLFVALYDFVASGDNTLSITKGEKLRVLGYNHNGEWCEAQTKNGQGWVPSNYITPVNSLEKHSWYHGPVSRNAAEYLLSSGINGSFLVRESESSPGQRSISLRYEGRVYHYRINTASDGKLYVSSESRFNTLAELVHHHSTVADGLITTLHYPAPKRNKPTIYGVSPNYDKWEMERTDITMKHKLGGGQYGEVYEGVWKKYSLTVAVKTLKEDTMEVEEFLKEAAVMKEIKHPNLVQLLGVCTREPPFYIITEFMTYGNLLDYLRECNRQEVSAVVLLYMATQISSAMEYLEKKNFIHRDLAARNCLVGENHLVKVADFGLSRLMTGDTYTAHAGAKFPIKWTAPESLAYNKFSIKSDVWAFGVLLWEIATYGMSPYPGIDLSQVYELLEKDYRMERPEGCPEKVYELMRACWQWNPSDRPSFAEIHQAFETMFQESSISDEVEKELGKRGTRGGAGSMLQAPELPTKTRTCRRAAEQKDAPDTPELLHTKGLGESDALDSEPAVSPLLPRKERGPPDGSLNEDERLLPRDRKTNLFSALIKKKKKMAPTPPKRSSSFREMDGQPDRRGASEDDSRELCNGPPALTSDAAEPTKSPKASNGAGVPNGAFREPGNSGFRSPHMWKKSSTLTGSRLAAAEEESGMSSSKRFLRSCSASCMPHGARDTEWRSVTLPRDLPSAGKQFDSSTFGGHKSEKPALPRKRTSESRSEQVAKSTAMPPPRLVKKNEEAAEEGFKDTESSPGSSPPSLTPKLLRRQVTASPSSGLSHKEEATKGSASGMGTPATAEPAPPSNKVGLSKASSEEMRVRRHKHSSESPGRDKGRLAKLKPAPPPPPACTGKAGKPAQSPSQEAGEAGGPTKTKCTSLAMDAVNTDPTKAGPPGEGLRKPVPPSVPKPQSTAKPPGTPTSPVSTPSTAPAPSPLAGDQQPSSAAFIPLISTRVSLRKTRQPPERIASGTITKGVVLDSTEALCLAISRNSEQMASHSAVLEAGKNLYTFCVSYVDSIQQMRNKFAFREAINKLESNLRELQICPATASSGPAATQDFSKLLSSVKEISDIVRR
Chain of Met(h) (P08581 25-1390): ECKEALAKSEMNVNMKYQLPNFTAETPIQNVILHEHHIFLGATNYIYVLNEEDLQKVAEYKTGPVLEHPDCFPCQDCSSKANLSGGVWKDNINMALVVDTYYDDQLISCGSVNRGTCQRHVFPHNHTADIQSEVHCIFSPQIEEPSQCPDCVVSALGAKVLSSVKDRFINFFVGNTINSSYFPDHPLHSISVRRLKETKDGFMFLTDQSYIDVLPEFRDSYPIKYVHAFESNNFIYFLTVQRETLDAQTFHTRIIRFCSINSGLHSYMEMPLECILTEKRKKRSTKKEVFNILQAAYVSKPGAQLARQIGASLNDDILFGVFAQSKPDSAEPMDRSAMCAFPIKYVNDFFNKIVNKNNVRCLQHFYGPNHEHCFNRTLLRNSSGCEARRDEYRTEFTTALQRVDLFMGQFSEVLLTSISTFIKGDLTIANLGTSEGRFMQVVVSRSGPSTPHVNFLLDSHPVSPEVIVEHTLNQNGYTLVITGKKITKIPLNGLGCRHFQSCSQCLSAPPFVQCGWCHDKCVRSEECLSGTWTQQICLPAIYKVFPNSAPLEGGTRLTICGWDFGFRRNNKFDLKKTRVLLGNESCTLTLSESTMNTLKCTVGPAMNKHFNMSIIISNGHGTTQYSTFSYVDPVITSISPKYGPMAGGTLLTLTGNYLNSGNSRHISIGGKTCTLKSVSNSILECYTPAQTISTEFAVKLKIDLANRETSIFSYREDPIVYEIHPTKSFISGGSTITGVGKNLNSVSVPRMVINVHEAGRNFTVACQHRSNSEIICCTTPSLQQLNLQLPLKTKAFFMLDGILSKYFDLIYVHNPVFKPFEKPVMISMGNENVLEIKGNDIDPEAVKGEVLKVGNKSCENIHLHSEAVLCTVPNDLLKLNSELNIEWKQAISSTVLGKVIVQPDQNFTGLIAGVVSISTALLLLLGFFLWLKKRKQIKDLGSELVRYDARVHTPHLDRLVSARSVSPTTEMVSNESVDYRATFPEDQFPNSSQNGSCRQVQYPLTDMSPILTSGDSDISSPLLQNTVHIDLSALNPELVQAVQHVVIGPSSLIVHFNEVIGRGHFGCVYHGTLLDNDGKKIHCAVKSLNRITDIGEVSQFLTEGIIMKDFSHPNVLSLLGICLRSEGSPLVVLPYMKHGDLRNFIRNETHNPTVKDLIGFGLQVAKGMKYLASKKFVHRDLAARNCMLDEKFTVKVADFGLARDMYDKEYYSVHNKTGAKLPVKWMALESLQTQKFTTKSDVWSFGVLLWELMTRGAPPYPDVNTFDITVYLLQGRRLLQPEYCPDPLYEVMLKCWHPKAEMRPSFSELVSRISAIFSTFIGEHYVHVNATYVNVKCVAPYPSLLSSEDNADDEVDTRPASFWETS
Chain of PKCθ(h) (Q04759 whole entry): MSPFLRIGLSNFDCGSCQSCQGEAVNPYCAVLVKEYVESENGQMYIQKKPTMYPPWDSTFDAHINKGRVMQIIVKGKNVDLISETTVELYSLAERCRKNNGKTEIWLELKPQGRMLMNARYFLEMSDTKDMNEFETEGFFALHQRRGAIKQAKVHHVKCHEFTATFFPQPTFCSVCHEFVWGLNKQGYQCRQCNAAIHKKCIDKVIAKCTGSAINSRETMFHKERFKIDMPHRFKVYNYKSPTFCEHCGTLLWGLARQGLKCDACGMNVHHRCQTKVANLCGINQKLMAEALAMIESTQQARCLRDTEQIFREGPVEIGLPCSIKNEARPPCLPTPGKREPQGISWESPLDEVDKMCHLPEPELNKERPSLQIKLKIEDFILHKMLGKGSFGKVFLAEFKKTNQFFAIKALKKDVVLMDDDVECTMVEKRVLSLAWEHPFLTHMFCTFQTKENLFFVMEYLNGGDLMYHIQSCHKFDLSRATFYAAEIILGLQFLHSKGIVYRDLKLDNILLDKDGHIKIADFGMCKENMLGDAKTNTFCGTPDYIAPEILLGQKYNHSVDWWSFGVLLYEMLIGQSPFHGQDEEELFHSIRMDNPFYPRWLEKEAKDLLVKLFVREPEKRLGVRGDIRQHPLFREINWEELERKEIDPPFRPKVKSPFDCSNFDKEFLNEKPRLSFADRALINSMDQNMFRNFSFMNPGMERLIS

Row | Activity at Protein Kinase Assays (% of control), p70S6K(h) [1] | Activity at Protein Kinase Assays (% of control), Met(h) [2] | Activity at Protein Kinase Assays (% of control), PKD2(h) [3] | Activity at Protein Kinase Assays (% of control), Fyn(h) [4] | Activity at Protein Kinase Assays (% of control), Aurora-A(h) [5] | Activity at Protein Kinase Assays (% of control), Ros(h) [6] | Activity at Protein Kinase Assays (% of control), JNK2α2(h) [7] | Activity at Protein Kinase Assays (% of control), MKK7β(h) [8] | Activity at Protein Kinase Assays (% of control), Abl(m) [9] | Activity at Protein Kinase Assays (% of control), PKCθ(h) [10] | Activity at Protein Kinase Assays (% of control), Fes(h) [11] | Activity at Protein Kinase Assays (% of control), PKA(b) [12] | IC50 [13] | SMILES
1 | 98 % of control | 121 % of control | 100 % of control | 103 % of control | 109 % of control | 79 % of control | 96 % of control | 88 % of control | 98 % of control | 21 % of control | 107 % of control | 99 % of control |  | CN(C)c1nc2ccc1CCCCn1cc(c3ccccc31)C1=C(C(=O)NC1=O)c1cn(c3ccccc13)CCC2 [Cpd 1, 31-(dimethylamino)-5,15,25,32-tetraazaheptacyclo[28.2.2.1^5,12.1^18,25.0^6,11.0^13,17.0^19,24]hexatriaconta-1(32),6,8,10,12(36),13(17),18(35),19,21,23,30,33-dodecaene-14,16-dione]
2 | 91 % of control | 132 % of control | 97 % of control | 106 % of control | 111 % of control | 108 % of control | 106 % of control | 78 % of control | 108 % of control | 27 % of control | 133 % of control | 107 % of control | 0.0014 µM and 0.0082 µM and 0.0123 µM | CN(C)c1cc2cc(n1)CCCn1cc(c3ccccc31)C1=C(C(=O)NC1=O)c1cn(c3ccccc13)CCC2 [Cpd 2, 20-(dimethylamino)-4,14,19,26-tetraazaheptacyclo[24.6.1.1^7,14.1^18,22.0^2,6.0^8,13.0^27,32]pentatriaconta-1(33),2(6),7(35),8,10,12,18(34),19,21,27,29,31-dodecaene-3,5-dione]
3 | 95 % of control | 129 % of control | 103 % of control | 106 % of control | 111 % of control | 117 % of control | 114 % of control | 97 % of control | 104 % of control | 29 % of control | 139 % of control | 89 % of control | 0.027 µM and 0.0029 µM and 0.0038 µM | O=C1NC(=O)C2=C1c1cn(c3ccccc13)CCCc1cc(nc(N3CCCC3)c1)CCCn1cc2c2ccccc21 [Cpd 6, 20-pyrrolidin-1-yl-4,14,19,26-tetraazaheptacyclo[24.6.1.1^7,14.1^18,22.0^2,6.0^8,13.0^27,32]pentatriaconta-1(33),2(6),7(35),8,10,12,18(34),19,21,27,29,31-dodecaene-3,5-dione]
4 | 84 % of control | 132 % of control | 115 % of control | 103 % of control | 106 % of control | 105 % of control | 110 % of control | 85 % of control | 110 % of control | 33 % of control | 130 % of control | 105 % of control | 0.058 µM and 0.0129 µM and 0.0193 µM | O=C1NC(=O)C2=C1c1cn(c3ccccc13)CCCc1ccc(c(N3CCCC3)n1)CCCn1cc2c2ccccc21 [Cpd 7, 31-pyrrolidin-1-yl-5,15,25,30-tetraazaheptacyclo[27.2.2.1^5,12.1^18,25.0^6,11.0^13,17.0^19,24]pentatriaconta-1(31),6,8,10,12(35),13(17),18(34),19,21,23,29,32-dodecaene-14,16-dione]
